In brackets after ≈: the same amount, converted by molar mass. Read-outs that look alike come from different tables or passages of the source.
Tests used:
Assay type in all cases: cell-based
[1] = tested on: H. influenzae ATCC 49247; assay: MIC against H. influenzae ATCC 49247; settings: Haemophilus influenzae, ATCC49247, H. influenzae ATCC 49247; read-out: MIC
[2] = tested on: S. aureus MP-549 msr(a) USA 300; assay: MIC against S. aureus MP-549 msr(a) USA 300; settings: Staphylococcus aureus, USA300, S. aureus MP-549 msr(a) USA 300
[3] = tested on: C. difficile BAA 1805; assay: MIC against C. difficile BAA 1805; settings: Clostridioides difficile, BAA1805
[4] = tested on: E. coli MP-9 ΔTolC; assay: MIC against E. coli MP-9 ΔTolC; settings: Escherichia coli
[5] = tested on: K. pneumoniae ATCC 10031; assay: MIC against K. pneumoniae ATCC 10031; settings: Klebsiella pneumoniae, ATCC10031, read-out: MIC
[6] = tested on: S. pyogenes MMX 946 Macrolide-Resistant; assay: MIC against S. pyogenes MMX 946 Macrolide-Resistant; settings: Streptococcus pyogenes
[7] = tested on: B. fragilis ATCC 25285; assay: MIC against B. fragilis ATCC 25285; settings: Bacteroides fragilis, ATCC25285
[8] = tested on: E. faecalis ATCC 29212; assay: MIC against E. faecalis ATCC 29212; settings: Enterococcus faecalis, ATCC29212, E. faecalis ATCC 29212; read-out: MIC
[9] = tested on: S. pneumoniae MMX 3031 cMefA; assay: MIC against S. pneumoniae MMX 3031 cMefA; settings: Streptococcus pneumoniae, MMX3031CMEFA
[10] = tested on: S. pneumoniae ATCC 49619; assay: MIC against S. pneumoniae ATCC 49619; settings: Streptococcus pneumoniae, ATCC49619, S. pneumoniae ATCC 49619; read-out: MIC
[11] = tested on: E. coli MP-74 LptD mutant; assay: MIC against E. coli MP-74 LptD mutant; settings: Escherichia coli
[12] = tested on: S. pneumoniae MMX 3028 cErmB; assay: MIC against S. pneumoniae MMX 3028 cErmB; settings: Streptococcus pneumoniae, MMX3028CERMB
[13] = tested on: S. pyogenes ATCC 19615; assay: MIC against S. pyogenes ATCC 19615; settings: Streptococcus pyogenes, ATCC19615, S. pyogenes ATCC 19615; read-out: MIC
[14] = tested on: S. aureus ATCC 29213; assay: MIC against S. aureus ATCC 29213; settings: Staphylococcus aureus, ATCC29213, S. aureus ATCC 29213; read-out: MIC
[15] = tested on: S. aureus MMX 3035 cErmA; assay: MIC against S. aureus MMX 3035 cErmA; settings: Staphylococcus aureus, MMX3035CERMA
[16] = tested on: E. coli ATCC 25922; assay: MIC against E. coli ATCC 25922; settings: Escherichia coli, ATCC25922, read-out: MIC
[17] = tested on: E. faecalis MMX 847 MacRes; assay: MIC against E. faecalis MMX 847 MacRes; settings: Enterococcus faecalis, MMX847MACRES
[18] = tested on: S. aureus BAA 977 iErmA; assay: MIC against S. aureus BAA 977 iErmA; settings: Staphylococcus aureus, BAA977
[19] = S. pyogenes MMX 946 Macrolide-Resistant (MacRes), read-out: MIC
[20] = S. pneumoniae MMX 3028 cErmB, read-out: MIC

SMILES	MIC [1] [µg/mL]	MIC [2] [µg/mL]	MIC [3] [µg/mL]	MIC [4] [µg/mL]	MIC [5] [µg/mL]	MIC [6] [µg/mL]	MIC [7] [µg/mL]	MIC [8] [µg/mL]	MIC [9] [µg/mL]	MIC [10] [µg/mL]	MIC [11] [µg/mL]	MIC [12] [µg/mL]	MIC [13] [µg/mL]	MIC [14] [µg/mL]	MIC [6, 19] [µg/mL]	MIC [15] [µg/mL]	MIC [16] [µg/mL]	MIC [17] [µg/mL]	MIC [12, 20] [µg/mL]	MIC [18] [µg/mL]
CCC[C@@H]1C[C@@H](C(=O)N[C@@H]([C@H]2O[C@H](SC)[C@H](O)[C@@H](O)[C@H]2O)[C@H](C)Cl)N(C)C1 [Clindamycin, clindamycin, reference compound]	16 (≈ 37.6 µM)	0.125 (≈ 0.294 µM)	8 (≈ 18.8 µM)	8 (≈ 18.8 µM)	8 (≈ 18.8 µM)	> 64	0.5 (≈ 1.18 µM)	16 (≈ 37.6 µM)	0.06 (≈ 0.141 µM)	0.12 (≈ 0.282 µM)	2 (≈ 4.71 µM)	> 64	0.06 (≈ 0.141 µM)							
CCC[C@@H]1C[C@@H](C(=O)N[C@H](CNc2ccc(-c3cccnc3)cc2)[C@H]2OC(SC)[C@H](O)C(O)C2O)N(C)C1 (some centres unmarked) [FSA-214087]		32 (≈ 58.7 µM)		> 64				> 64	32 (≈ 58.7 µM)	8 (≈ 14.7 µM)			8 (≈ 14.7 µM)	32 (≈ 58.7 µM)	> 64	> 64	> 64	> 64	> 64	
CCC[C@@H]1C[C@@H](C(=O)N[C@H](CN=[N+]=[N-])[C@H]2OC(SC)[C@H](O)C(O)C2O)N(C)C1 (some centres unmarked) [FSA-215003]		0.125 (≈ 0.299 µM)		4 (≈ 9.58 µM)				32 (≈ 76.6 µM)	0.125 (≈ 0.299 µM)	4 (≈ 9.58 µM)			2 (≈ 4.79 µM)	8 (≈ 19.2 µM)	> 64	> 64	> 64	> 64	> 64	
C=C[C@@H](NC(=O)[C@@H]1C[C@@H](CCC)CN1C)[C@H]1OC(SC)[C@H](O)C(O)C1O (some centres unmarked) [FSA-215031]				> 64	> 64			32 (≈ 82.4 µM)		2 (≈ 5.15 µM)			2 (≈ 5.15 µM)	8 (≈ 20.6 µM)			> 64			8 (≈ 20.6 µM)
CCC[C@@H]1C[C@@H](C(=O)N[C@H](COC(=O)Nc2ccccc2)[C@H]2OC(SC)[C@H](O)C(O)C2O)N(C)C1 (some centres unmarked) [FSA-215036]				> 64	> 64			> 64		16 (≈ 31.3 µM)			64 (≈ 125 µM)	> 64			> 64			> 64
CCC[C@@H]1C[C@@H](C(=O)N[C@H]([C@H](C)N=[N+]=[N-])[C@H]2OC(SC)[C@H](O)C(O)C2O)N(C)C1 (stereo partly drawn) [FSA-215038, 7-(S)-deoxyazidolincomycin]				> 64	> 64			32 (≈ 74.1 µM)		0.25 (≈ 0.579 µM)			0.125 (≈ 0.29 µM)	0.25 (≈ 0.579 µM)			> 64			0.5 (≈ 1.16 µM)
CCC[C@@H]1C[C@@H](C(=O)N[C@H]([C@H](C)N)[C@H]2OC(SC)[C@H](O)C(O)C2O)N(C)C1 (stereo partly drawn) [FSA-215049, 7-(S)-deoxyaminolincomycin]	> 64	32 (≈ 78.9 µM)	> 64	> 64	> 64			> 64		8 (≈ 19.7 µM)	> 64		16 (≈ 39.5 µM)	64 (≈ 158 µM)			> 64			64 (≈ 158 µM)
CCC[C@@H]1C[C@@H](C(=O)N[C@H]([C@H](C)NC(=O)CCCN)[C@H]2OC(SC)[C@H](O)C(O)C2O)N(C)C1 (some centres unmarked) [FSA-215052]				> 64	> 64			> 64		> 64			32 (≈ 65.2 µM)	> 64			> 64			> 64
CCC[C@@H]1C[C@@H](C(=O)N[C@H]([C@H](C)NC(=O)CCN)[C@H]2OC(SC)[C@H](O)C(O)C2O)N(C)C1 (some centres unmarked) [FSA-215054]				> 64	> 64			> 64		> 64			64 (≈ 134 µM)	> 64			> 64			> 64
CCC[C@@H]1C[C@@H](C(=O)N[C@H]([C@H](C)NC(=N)N)[C@H]2OC(SC)[C@H](O)C(O)C2O)N(C)C1 (some centres unmarked) [FSA-215059]				> 64	> 64			> 64		8 (≈ 17.9 µM)	> 64		4 (≈ 8.94 µM)	32 (≈ 71.5 µM)			> 64			32 (≈ 71.5 µM)
CCC[C@@H]1C[C@@H](C(=O)N[C@@H]([C@H]2OC(SC)[C@H](O)C(O)C2O)[C@H](C)n2ccnc2)N(C)C1 (some centres unmarked) [FSA-215064]				> 64	> 64			> 64		16 (≈ 35 µM)	> 64		8 (≈ 17.5 µM)	64 (≈ 140 µM)			> 64			> 64
CCC[C@@H]1C[C@@H](C(=O)N[C@@H]([C@H]2OC(SC)[C@H](O)C(O)C2O)[C@H](C)N(C)C)N(C)C1 (some centres unmarked) [FSA-215070]	> 64	64 (≈ 148 µM)	> 64	> 64	> 64			> 64		16 (≈ 36.9 µM)	> 64		32 (≈ 73.8 µM)	64 (≈ 148 µM)			> 64			64 (≈ 148 µM)
CCC[C@@H]1C[C@@H](C(=O)N[C@H]([C@H](C)NC(=O)CN)[C@H]2OC(SC)[C@H](O)C(O)C2O)N(C)C1 (some centres unmarked) [FSA-215071]	> 64	> 64	> 64	> 64	> 64			> 64		8 (≈ 17.3 µM)	> 64		16 (≈ 34.6 µM)	> 64			> 64			> 64
CCC[C@@H]1C[C@@H](C(=O)N[C@@H]([C@H]2OC(SC)[C@H](O)C(O)C2O)[C@H](C)n2cc(CN)nn2)N(C)C1 (some centres unmarked) [FSA-215072]				> 64	> 64			> 64		8 (≈ 16.4 µM)	> 64		8 (≈ 16.4 µM)	> 64			> 64			> 64
CCC[C@@H]1C[C@@H](C(=O)N[C@H](CN)[C@H]2OC(SC)[C@H](O)C(O)C2O)N(C)C1 (some centres unmarked) [FSA-215077]	> 64	> 64		> 64	> 64			> 64		> 64	> 64		> 64	> 64			> 64			> 64
CCC[C@@H]1C[C@@H](C(=O)N[C@H]([C@H](C)NC(=O)CNC)[C@H]2OC(SC)[C@H](O)C(O)C2O)N(C)C1 (some centres unmarked) [FSA-215078a]	> 64	> 64	> 64	> 64	> 64		> 64	> 64		16 (≈ 33.6 µM)	> 64		8 (≈ 16.8 µM)	> 64			> 64			> 64
CCC[C@@H]1C[C@@H](C(=O)N[C@H]([C@H](C)NC(=O)CN(C)C)[C@H]2OC(SC)[C@H](O)C(O)C2O)N(C)C1 (some centres unmarked) [FSA-215078b]	> 64	> 64	> 64	> 64	> 64			> 64		8 (≈ 16.3 µM)	> 64		8 (≈ 16.3 µM)	> 64			> 64			> 64
CCC[C@@H]1C[C@@H](C(=O)N[C@@H]([C@H]2OC(SC)[C@H](O)C(O)C2O)[C@H](C)N(C)Cc2ccccc2[N+](=O)[O-])N(C)C1 (some centres unmarked) [FSA-215081]	> 64	4 (≈ 7.21 µM)		> 64	> 64			> 64		2 (≈ 3.61 µM)	> 64		1 (≈ 1.8 µM)	4 (≈ 7.21 µM)			> 64			4 (≈ 7.21 µM)
CCC[C@@H]1C[C@@H](C(=O)N[C@H]([C@H](C)NC)[C@H]2OC(SC)[C@H](O)C(O)C2O)N(C)C1 (some centres unmarked) [FSA-215082]	> 64	> 64	> 64	> 64	> 64		> 64	> 64		16 (≈ 38.1 µM)	> 64		32 (≈ 76.3 µM)	64 (≈ 153 µM)			> 64			64 (≈ 153 µM)
